Source: patent US8053553B2, “Targeting host proteinases as a therapeutic strategy against viral and bacterial pathogens” (Socpra Sciences Sante Et Humaines, priority 2007, dated 2011)
Non-standard residues stand in square brackets, D forms with d. Residues, ends and D or L forms follow the SMILES beside them. Nle = CCCC[C@H](N)C(=O)O; Ahx = NCCCCCC(=O)O; Sar = CNCC(=O)O

target: T1, furin (Homo sapiens, UniProt P09958); test: biochemical; settings: furin, Pyr-RTKR-AMC substrate; alanine scanning mutagenesis of the H5 furin cleavage sequence (Table 2); read-out: Ki
T1 construct: made in house; host or cells: Drosophila S2 cells (Invitrogen expression system)
T1 sequence (P09958 108-794 limits assumed): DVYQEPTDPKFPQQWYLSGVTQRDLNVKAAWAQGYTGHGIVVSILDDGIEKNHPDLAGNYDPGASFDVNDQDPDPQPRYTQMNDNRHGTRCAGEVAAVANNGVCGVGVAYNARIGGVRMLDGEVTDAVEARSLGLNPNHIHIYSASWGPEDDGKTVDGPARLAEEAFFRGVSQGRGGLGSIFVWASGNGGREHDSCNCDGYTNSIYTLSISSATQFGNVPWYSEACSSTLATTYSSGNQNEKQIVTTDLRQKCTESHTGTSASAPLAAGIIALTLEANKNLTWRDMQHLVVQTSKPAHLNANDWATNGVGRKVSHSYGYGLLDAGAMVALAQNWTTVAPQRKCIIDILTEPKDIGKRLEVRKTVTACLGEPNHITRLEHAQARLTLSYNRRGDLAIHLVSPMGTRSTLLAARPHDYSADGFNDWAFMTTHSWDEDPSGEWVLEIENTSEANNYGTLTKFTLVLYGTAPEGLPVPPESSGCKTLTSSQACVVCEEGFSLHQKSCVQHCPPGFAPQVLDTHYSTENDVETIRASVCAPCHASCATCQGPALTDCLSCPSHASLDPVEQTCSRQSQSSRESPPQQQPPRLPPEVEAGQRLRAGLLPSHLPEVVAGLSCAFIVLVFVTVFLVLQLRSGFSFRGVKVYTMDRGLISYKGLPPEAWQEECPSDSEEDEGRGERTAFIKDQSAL

Row | SMILES | Ki
1 | C[C@@H](O)[C@H](N)C(=O)N1CCC[C@H]1C(=O)N[C@@H](CCCNC(=N)N)C(=O)N[C@@H](CCC(=O)O)C(=O)N[C@@H](CCCNC(=N)N)C(=O)N[C@@H](CCCNC(=N)N)C(=O)N[C@@H](CCCNC(=N)N)C(=O)N[C@@H](CCCCN)C(=O)N[C@@H](CCCCN)C(=O)N[C@@H](CCCNC(=N)N)C(=O)N(C)CC(N)=O (H-TPRERRRKKR[Sar]-NH2) | > 100 nM
2 | CC(C)[C@H](NC(=O)[C@H](CCCNC(=N)N)NC(=O)[C@H](CCCCN)NC(=O)[C@H](CCCCN)NC(=O)[C@H](C)NC(=O)[C@H](C)NC(=O)[C@H](CCCNC(=N)N)NC(=O)[C@H](CCC(=O)O)NC(=O)[C@H](CCCNC(=N)N)NC(=O)[C@@H]1CCCN1C(=O)[C@@H](N)[C@@H](C)O)C(N)=O (H-TPRERAAKKRV-NH2) | > 100 nM
3 | C[C@H](NC(=O)[C@@H](N)[C@@H](C)O)C(=O)N[C@@H](CCCNC(=N)N)C(=O)N[C@@H](CCC(=O)O)C(=O)N[C@@H](CCCNC(=N)N)C(=O)N[C@@H](CCCNC(=N)N)C(=O)N[C@@H](CCCNC(=N)N)C(=O)N[C@@H](CCCCN)C(=O)N[C@@H](CCCCN)C(=O)N[C@@H](CCCNC(=N)N)C(N)=O (H-TARERRRKKR-NH2) | > 100 nM
4 | CC(C)[C@H](NC(=O)[C@H](CCCNC(=N)N)NC(=O)[C@H](CCCCN)NC(=O)[C@H](CCCCN)NC(=O)[C@H](CCCNC(=N)N)NC(=O)[C@H](CCCNC(=N)N)NC(=O)[C@H](CCCNC(=N)N)NC(=O)[C@H](CCC(=O)O)NC(=O)[C@H](CCCNC(=N)N)NC(=O)[C@@H]1CCCN1C(=O)[C@@H](N)[C@@H](C)O)C(N)=O (H-TPRERRRKKRV-NH2) | > 100 nM
5 | CC(C)[C@H](NC(=O)[C@H](CCCNC(=N)N)NC(=O)[C@H](CCCCN)NC(=O)[C@H](CCCCN)NC(=O)[C@H](C)NC(=O)[C@H](CCCNC(=N)N)NC(=O)[C@H](CCCNC(=N)N)NC(=O)[C@H](CCC(=O)O)NC(=O)[C@H](CCCNC(=N)N)NC(=O)[C@@H]1CCCN1C(=O)[C@@H](N)[C@@H](C)O)C(N)=O (H-TPRERRAKKRV-NH2) | > 100 nM
6 | C[C@H](NC(=O)[C@H](C)NC(=O)[C@@H](N)[C@@H](C)O)C(=O)N[C@@H](CCC(=O)O)C(=O)N[C@@H](CCCNC(=N)N)C(=O)N[C@@H](CCCNC(=N)N)C(=O)N[C@@H](CCCNC(=N)N)C(=O)N[C@@H](CCCCN)C(=O)N[C@@H](CCCCN)C(=O)N[C@@H](CCCNC(=N)N)C(N)=O (H-TAAERRRKKR-NH2) | > 100 nM
7 | C[C@H](NC(=O)[C@H](CCCNC(=N)N)NC(=O)[C@@H]1CCCN1C(=O)[C@@H](N)[C@@H](C)O)C(=O)N[C@@H](CCCNC(=N)N)C(=O)N[C@@H](CCCNC(=N)N)C(=O)N[C@@H](CCCNC(=N)N)C(=O)N[C@@H](CCCCN)C(=O)N[C@@H](CCCCN)C(=O)N[C@@H](CCCNC(=N)N)C(N)=O | 138 nM
8 | C[C@H](NC(=O)[C@H](C)NC(=O)[C@H](CCCNC(=N)N)NC(=O)[C@H](CCCNC(=N)N)NC(=O)[C@H](CCC(=O)O)NC(=O)[C@H](CCCNC(=N)N)NC(=O)[C@@H]1CCCN1C(=O)[C@@H](N)[C@@H](C)O)C(=O)N[C@@H](CCCCN)C(=O)N[C@@H](CCCNC(=N)N)C(=O)NCC(N)=O (H-TPRERRAAKRG-NH2) | > 100 nM
9 | C[C@H](NC(=O)[C@H](C)NC(=O)[C@H](CCCNC(=N)N)NC(=O)[C@H](CCC(=O)O)NC(=O)[C@H](CCCNC(=N)N)NC(=O)[C@@H]1CCCN1C(=O)[C@@H](N)[C@@H](C)O)C(=O)N[C@@H](CCCCN)C(=O)N[C@@H](CCCCN)C(=O)N[C@@H](CCCNC(=N)N)C(N)=O (H-TPRERAAKKR-NH2) | > 100 nM

same assay, conditions: furin, Pyr-RTKR-AMC substrate; optimization of the inhibitory peptides (Table 3); read-out: Ki

Row | SMILES | Ki
10 | C[C@@H](O)[C@H](N)C(=O)N1CCC[C@H]1C(=O)N[C@@H](CCC(N)=O)C(=O)N[C@@H](CCCNC(=N)N)C(=O)NCC(=O)N[C@@H](CCCNC(=N)N)C(=O)N[C@@H](CCCNC(=N)N)C(=O)N[C@@H](CCCNC(=N)N)C(=O)N[C@@H](CCCCN)C(=O)N[C@@H](CCCCN)C(=O)N[C@@H](CCCNC(=N)N)C(=O)NCC(N)=O (H-TPQRGRRRKKRG-NH2) | > 100 nM
11 | C[C@@H](O)[C@H](N)C(=O)N1CCC[C@H]1C(=O)N[C@@H](CCC(N)=O)C(=O)N[C@@H](CCCNC(=N)N)C(=O)N1CCC[C@H]1C(=O)N[C@@H](CCCNC(=N)N)C(=O)N[C@@H](CCCNC(=N)N)C(=O)N[C@@H](CCCNC(=N)N)C(=O)N[C@@H](CCCCN)C(=O)N[C@@H](CCCCN)C(=O)N[C@@H](CCCNC(=N)N)C(=O)NCC(N)=O (H-TPQRPRRRKKRG-NH2) | > 100 nM
12 | C[C@@H](O)[C@H](N)C(=O)N1CCC[C@H]1C(=O)N[C@@H](CCC(N)=O)C(=O)N[C@@H](CCCNC(=N)N)C(=O)N[C@@H](Cc1ccccc1)C(=O)N[C@@H](CCCNC(=N)N)C(=O)N[C@@H](CCCNC(=N)N)C(=O)N[C@@H](CCCNC(=N)N)C(=O)N[C@@H](CCCCN)C(=O)N[C@@H](CCCCN)C(=O)N[C@@H](CCCNC(=N)N)C(=O)NCC(N)=O (H-TPQRFRRRKKRG-NH2) | > 100 nM
13 | CC[C@H](C)[C@H](NC(=O)[C@H](CCCNC(=N)N)NC(=O)[C@H](CCC(N)=O)NC(=O)[C@@H]1CCCN1C(=O)[C@@H](N)[C@@H](C)O)C(=O)N[C@@H](CCCNC(=N)N)C(=O)N[C@@H](CCCNC(=N)N)C(=O)N[C@@H](CCCNC(=N)N)C(=O)N[C@@H](CCCCN)C(=O)N[C@@H](CCCCN)C(=O)N[C@@H](CCCNC(=N)N)C(=O)NCC(N)=O (H-TPQRIRRRKKRG-NH2) | > 100 nM
14 | C[C@H](NC(=O)[C@H](CCCNC(=N)N)NC(=O)[C@H](CCC(N)=O)NC(=O)[C@@H]1CCCN1C(=O)[C@@H](N)[C@@H](C)O)C(=O)N[C@@H](CCCNC(=N)N)C(=O)N[C@@H](CCCNC(=N)N)C(=O)N[C@@H](CCCNC(=N)N)C(=O)N[C@@H](CCCCN)C(=O)N[C@@H](CCCCN)C(=O)N[C@@H](CCCNC(=N)N)C(=O)N[C@@H](CS)C(N)=O (H-TPQRARRRKKRC-NH2) | > 100 nM
15 | CSC[C@H](NC(=O)[C@H](CCCNC(=N)N)NC(=O)[C@H](CCCCN)NC(=O)[C@H](CCCCN)NC(=O)[C@H](CCCNC(=N)N)NC(=O)[C@H](CCCNC(=N)N)NC(=O)[C@H](CCCNC(=N)N)NC(=O)[C@H](C)NC(=O)[C@H](CCCNC(=N)N)NC(=O)[C@H](CCC(N)=O)NC(=O)[C@@H]1CCCN1C(=O)[C@@H](N)[C@@H](C)O)C(N)=O (H-TPQRARRRKKRC(Me)-NH2) | 93 nM
16 | C[C@H](NC(=O)[C@H](CCCNC(=N)N)NC(=O)[C@H](CCC(N)=O)NC(=O)[C@@H]1CCCN1C(=O)[C@@H](N)[C@@H](C)O)C(=O)N[C@@H](CCCNC(=N)N)C(=O)N[C@@H](CCCNC(=N)N)C(=O)N[C@@H](CCCNC(=N)N)C(=O)N[C@@H](CCCCN)C(=O)N[C@@H](CCCCN)C(=O)N[C@@H](CCCNC(=N)N)C(=O)N[C@@H](CO)C(N)=O (H-TPQRARRRKKRS-NH2) | > 100 nM
17 | C[C@H](NC(=O)[C@H](CCCNC(=N)N)NC(=O)[C@H](CCC(N)=O)NC(=O)[C@@H]1CCCN1C(=O)[C@@H](N)[C@@H](C)O)C(=O)N[C@@H](CCCNC(=N)N)C(=O)N[C@@H](CCCNC(=N)N)C(=O)N[C@@H](CCCNC(=N)N)C(=O)N[C@@H](CCCCN)C(=O)N[C@@H](CCCCN)C(=O)N[C@@H](CCCNC(=N)N)C(=O)NCCCCCC(N)=O (H-TPQRARRRKKR[Ahx]-NH2) | > 100 nM
18 | CCCC[C@H](NC(=O)[C@H](CCCNC(=N)N)NC(=O)[C@H](CCCCN)NC(=O)[C@H](CCCCN)NC(=O)[C@H](CCCNC(=N)N)NC(=O)[C@H](CCCNC(=N)N)NC(=O)[C@H](CCCNC(=N)N)NC(=O)[C@H](C)NC(=O)[C@H](CCCNC(=N)N)NC(=O)[C@H](CCC(N)=O)NC(=O)[C@@H]1CCCN1C(=O)[C@@H](N)[C@@H](C)O)C(N)=O (H-TPQRARRRKKR[Nle]-NH2) | > 100 nM
